Measurements: patent publication US20260297081A1, “COMPOUNDS AND METHODS OF TREATING CANCERS” (Cullgen Inc., priority 2023, published 2026)

Experiments:
Type in all cases: cell-based
[1] = test system: MCF7 cells; experiment: Anti-proliferation (viability) of MCF7 cells (Table 7, FIG. 2B); details: Homo sapiens, MCF7, MCF7 cells, 3-6 days, 10-point serial dilution; read-out: GI IC50 in MCF-7
[2] = biological target: T1, CDK4 (Homo sapiens, UniProt P11802+Q16531); experiment: HiBiT detection of HiBiT-tagged CDK4 protein level in MCF7 cells, 16 hours (Table 8); design: expressed in transfected cells; host or cells: MCF7; details: MCF7 cells stably expressing HiBiT tagged target proteins; for activity at 0.01 µM: 10 nM, read-out: % CDK4 Relative Level (10 nM); for activity at 0.1 µM: 100 nM, read-out: % CDK4 Relative Level (100 nM)
Description: HiBiT detection system quantitatively measures total amounts of HiBiT-tagged proteins using a luminescent based method. MCF7 cells stably expressing HiBiT tagged target proteins were treated with heterobifunctional compounds at indicated concentrations for 16 hours, then lysed with Nano-Glo HiBiT Lytic detection reagents.
Target sequence in this assay (P11802 whole entry): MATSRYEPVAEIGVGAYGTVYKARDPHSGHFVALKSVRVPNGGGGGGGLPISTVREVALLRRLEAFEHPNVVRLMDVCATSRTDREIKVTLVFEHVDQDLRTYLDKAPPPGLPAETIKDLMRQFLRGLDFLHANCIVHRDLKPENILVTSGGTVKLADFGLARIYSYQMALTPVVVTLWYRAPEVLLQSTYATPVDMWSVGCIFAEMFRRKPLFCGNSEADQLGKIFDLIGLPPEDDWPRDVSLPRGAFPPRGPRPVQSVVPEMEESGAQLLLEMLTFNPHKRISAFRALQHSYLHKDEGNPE
Target sequence in this assay (P24385 whole entry partner): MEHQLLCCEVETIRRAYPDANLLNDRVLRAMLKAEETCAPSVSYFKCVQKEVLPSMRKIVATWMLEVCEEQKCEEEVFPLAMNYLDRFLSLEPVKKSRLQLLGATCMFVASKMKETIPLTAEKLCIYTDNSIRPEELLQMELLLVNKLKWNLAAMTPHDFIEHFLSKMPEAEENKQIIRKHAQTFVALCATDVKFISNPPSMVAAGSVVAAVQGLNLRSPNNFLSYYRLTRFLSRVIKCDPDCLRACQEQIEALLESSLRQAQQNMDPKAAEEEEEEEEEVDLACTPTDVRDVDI
Target sequence in this assay (Q16531 2-1140 limits assumed): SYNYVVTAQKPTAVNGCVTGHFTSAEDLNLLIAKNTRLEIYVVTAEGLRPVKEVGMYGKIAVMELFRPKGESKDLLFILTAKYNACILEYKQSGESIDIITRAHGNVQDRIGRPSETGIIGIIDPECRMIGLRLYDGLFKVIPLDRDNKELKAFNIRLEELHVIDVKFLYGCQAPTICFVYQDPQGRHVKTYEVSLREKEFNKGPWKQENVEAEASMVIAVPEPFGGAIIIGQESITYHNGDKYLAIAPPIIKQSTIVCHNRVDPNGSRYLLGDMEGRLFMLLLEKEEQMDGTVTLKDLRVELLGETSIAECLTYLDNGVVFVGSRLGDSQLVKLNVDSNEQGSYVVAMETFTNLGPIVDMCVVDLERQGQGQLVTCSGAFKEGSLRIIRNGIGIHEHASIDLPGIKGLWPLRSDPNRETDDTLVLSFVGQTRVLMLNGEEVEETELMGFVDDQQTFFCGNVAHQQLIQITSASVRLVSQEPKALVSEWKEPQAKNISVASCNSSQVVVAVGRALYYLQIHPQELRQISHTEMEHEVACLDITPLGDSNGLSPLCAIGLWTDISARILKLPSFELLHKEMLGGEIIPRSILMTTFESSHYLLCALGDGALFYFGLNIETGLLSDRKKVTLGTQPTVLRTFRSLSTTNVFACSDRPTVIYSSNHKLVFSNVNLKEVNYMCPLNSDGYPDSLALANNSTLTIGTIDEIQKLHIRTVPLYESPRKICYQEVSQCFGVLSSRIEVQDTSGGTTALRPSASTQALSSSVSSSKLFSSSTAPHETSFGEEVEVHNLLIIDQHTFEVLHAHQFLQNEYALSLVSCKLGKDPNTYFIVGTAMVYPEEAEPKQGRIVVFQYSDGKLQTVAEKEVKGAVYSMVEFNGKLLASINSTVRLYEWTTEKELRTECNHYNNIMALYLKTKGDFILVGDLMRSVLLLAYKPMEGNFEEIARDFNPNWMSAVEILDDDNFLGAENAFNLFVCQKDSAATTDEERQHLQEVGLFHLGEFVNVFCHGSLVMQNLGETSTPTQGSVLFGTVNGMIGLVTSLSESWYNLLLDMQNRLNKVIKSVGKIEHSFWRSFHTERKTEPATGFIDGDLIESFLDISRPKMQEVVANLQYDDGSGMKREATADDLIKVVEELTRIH

[3] = biological target: T1, CDK4; experiment: CDK4 percentage degradation in Calu-1 cells (Table 6); design: Cells that express cyclin D1-3 and CDK4/6 proteins were treated with heterobifunctional compounds; endogenous in cells; host or cells: Calu-1; details: 16 hours; for inhibition at 0.04 µM: 40 nM; for inhibition at 0.2 µM: 200 nM
In short: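 Percentage degradation of Cyclin D1 and CDK4 derived from densitometry of ECL Western blots on lysates of Calu-1 cells. Treatment was 16 h with compound at either 40 nM or 200 nM.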
Target sequence in this assay (P11802 2-303 limits assumed): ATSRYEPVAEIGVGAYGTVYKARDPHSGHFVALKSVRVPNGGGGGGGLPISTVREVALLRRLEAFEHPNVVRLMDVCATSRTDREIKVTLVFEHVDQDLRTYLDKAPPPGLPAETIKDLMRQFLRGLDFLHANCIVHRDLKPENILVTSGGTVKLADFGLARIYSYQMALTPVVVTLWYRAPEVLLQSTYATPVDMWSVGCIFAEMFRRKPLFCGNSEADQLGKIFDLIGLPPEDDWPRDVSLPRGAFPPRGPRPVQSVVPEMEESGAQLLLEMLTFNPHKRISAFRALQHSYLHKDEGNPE
Target sequence in this assay (P24385 whole entry partner): as the sequence (P24385 whole entry partner) above
Target sequence in this assay (Q16531 2-1140 limits assumed): as the sequence (Q16531 2-1140 limits assumed) above

[4] = test system: Calu-1 cells; experiment: Anti-proliferation (viability) of NSCLC Calu-1 cells, 3 days (Table 7, FIG. 2B); details: Homo sapiens, 72 h; Calu-1 cells, 3 days, 10-point serial dilution; read-out: GI IC50 in Calu-1
Description: To evaluate anti-proliferation activities of heterobifunctional compounds, NSCLC Calu-1 or ER+ breast cancer T47D cells were treated with selected heterobifunctional compounds following a 10-point serial dilution for 3 or 6 days, respectively.
To verify that heterobifunctional compound-mediated degradation is dependent on the binding to CDK4-cyclin D complex, a negative control compound, CPD-143, which is derived from active heterobifunctional compound CPD-10 was designed. CPD-143 bears the same DDB1 ligand and linker as CPD-10 but with a modified warhead to impair the binding of the control compound to CDK4.

Row | Structure (SMILES) | IC50 [1] | activity at 0.01 µM [2] | activity at 0.1 µM [2] | inhibition at 0.04 µM [3] | inhibition at 0.2 µM [3] | IC50 [4]
1 | CC(=O)c1c(C)c2cnc(Nc3ccc(N4CCN(CC5(C(=O)N6CC7(CC(Nc8nc(NC(C)C)ccc8C(=O)Nc8ccc(N(C)C)nn8)C7)C6)CC5)CC4)cn3)nc2n(C2CCCC2)c1=O [CPD-306, 2-((2-(1-((4-(6-((6-acetyl-8-cyclopentyl-5-methyl-7-oxo-7,8-dihydropyrido[2,3-d]pyrimidin-2-yl)amino)pyridin-3-yl)piperazin-1-yl)methyl)cyclopropane-1-carbonyl)-2-azaspiro[3.3]heptan-6-yl)amino)-N-(6-(dimethylamino)pyridazin-3-yl)-6-(isopropylamino)nicotinamide] | < 50 nM | 55 to 85% | 55 to 85% | 30 to 50% | 30 to 50% | 
2 | CC(=O)c1c(C)c2cnc(Nc3ccc(N4CCC(N(C)CC(=O)N5CCC(Nc6nc(NC(C)C)ccc6C(=O)Nc6ccc(N(C)C)nn6)CC5)CC4)cn3)nc2n(C2CCCC2)c1=O [CPD-360, 2-((1-(N-(1-(6-((6-acetyl-8-cyclopentyl-5-methyl-7-oxo-7,8-dihydropyrido[2,3-d]pyrimidin-2-yl)amino)pyridin-3-yl)piperidin-4-yl)-N-methylglycyl)piperidin-4-yl)amino)-N-(6-(dimethylamino)pyridazin-3-yl)-6-(isopropylamino)nicotinamide] | < 50 nM | 55 to 85% | 55 to 85% | < 30% | < 30% | 
3 | CC(=O)c1c(C)c2cnc(Nc3ccc(CN4CCN(CC(=O)NCC56CC(Nc7nc(NC(C)C)ccc7C(=O)Nc7ccc(N(C)C)nn7)(C5)C6)CC4)cn3)nc2n(C2CCCC2)c1=O [CPD-479, 2-((3-((2-(4-((6-((6-acetyl-8-cyclopentyl-5-methyl-7-oxo-7,8-dihydropyrido[2,3-d]pyrimidin-2-yl)amino)pyridin-3-yl)methyl)piperazin-1-yl)acetamido)methyl)bicyclo[1.1.1]pentan-1-yl)amino)-N-(6-(dimethylamino)pyridazin-3-yl)-6-(isopropylamino)nicotinamide] |  |  |  |  |  | ≤ 10 nM
4 | [2H]C([2H])([2H])Nc1ccc(C(=O)Nc2cn(C)c(C3CC3)n2)c(N[C@H]2CC[C@H](C(=O)N3CCC(N4CCN(c5ccc(Nc6ncc7c(C)c(C(C)=O)c(=O)n(C8CCCC8)c7n6)nc5)CC4)C3)CC2)n1 (some centres unmarked) [CPD-480, 2-((4-(3-(4-(6-((6-acetyl-8-cyclopentyl-5-methyl-7-oxo-7,8-dihydropyrido[2,3-d]pyrimidin-2-yl)amino)pyridin-3-yl)piperazin-1-yl)pyrrolidine-1-carbonyl)cyclohexyl)amino)-N-(2-cyclopropyl-1-methyl-1H-imidazol-4-yl)-6-((methyl-d3)amino)nicotinamide] |  |  |  |  |  | 10 to 50 nM
5 | CC(=O)c1c(C)c2cnc(Nc3ccc(N4CC5(CC(N(C)CC(=O)N6CCC(Nc7nc(NC(C)C)ccc7C(=O)Nc7ccc(N(C)C)nn7)CC6)C5)C4)cn3)nc2n(C2CCCC2)c1=O [CPD-484, 2-((1-(N-(2-(6-((6-acetyl-8-cyclopentyl-5-methyl-7-oxo-7,8-dihydropyrido[2,3-d]pyrimidin-2-yl)amino)pyridin-3-yl)-2-azaspiro[3.3]heptan-6-yl)-N-methylglycyl)piperidin-4-yl)amino)-N-(6-(dimethylamino)pyridazin-3-yl)-6-(isopropylamino)nicotinamide] |  |  |  |  |  | 10 to 50 nM
6 | [2H]C([2H])([2H])Nc1ccc(C(=O)Nc2ccc(N(C)C)nn2)c(NC2CCN(C(=O)CN3CC4(C3)CN(c3ccc(Nc5ncc6c(C)c(C(C)=O)c(=O)n(C7CCCC7)c6n5)nc3)C4)CC2)n1 [CPD-490, 2-((1-(2-(6-(6-((6-acetyl-8-cyclopentyl-5-methyl-7-oxo-7,8-dihydropyrido[2,3-d]pyrimidin-2-yl)amino)pyridin-3-yl)-2,6-diazaspiro[3.3]heptan-2-yl)acetyl)piperidin-4-yl)amino)-N-(6-(dimethylamino)pyridazin-3-yl)-6-((methyl-d3)amino)nicotinamide] |  |  |  |  |  | ≥ 50 nM
7 | CC(=O)c1c(C)c2cnc(Nc3ccc(CN4CCN(CC(=O)NCC5CC(Nc6nc(NC(C)C)ccc6C(=O)Nc6ccc(N(C)C)nn6)C5)CC4)cn3)nc2n(C2CCCC2)c1=O (centres unmarked) [CPD-493, 2-((3-((2-(4-((6-((6-acetyl-8-cyclopentyl-5-methyl-7-oxo-7,8-dihydropyrido[2,3-d]pyrimidin-2-yl)amino)pyridin-3-yl)methyl)piperazin-1-yl)acetamido)methyl)cyclobutyl)amino)-N-(6-(dimethylamino)pyridazin-3-yl)-6-(isopropylamino)nicotinamide] |  |  |  |  |  | ≤ 10 nM
8 | [2H]C([2H])([2H])Nc1ccc(C(=O)Nc2ccc(N(C)C)nn2)c(NC2CC(NC(=O)N3CCC(N4CCN(c5ccc(Nc6ncc7c(C)c(C(C)=O)c(=O)n(C8CCCC8)c7n6)nc5)CC4)C3)C2)n1 (centres unmarked) [CPD-494, 2-((3-(3-(4-(6-((6-acetyl-8-cyclopentyl-5-methyl-7-oxo-7,8-dihydropyrido[2,3-d]pyrimidin-2-yl)amino)pyridin-3-yl)piperazin-1-yl)pyrrolidine-1-carboxamido)cyclobutyl)amino)-N-(6-(dimethylamino)pyridazin-3-yl)-6-((methyl-d3)amino)nicotinamide] |  |  |  |  |  | ≥ 50 nM

More lines, now with the values ahead:

Row | IC50 [1] | activity at 0.01 µM [2] | activity at 0.1 µM [2] | inhibition at 0.04 µM [3] | inhibition at 0.2 µM [3] | IC50 [4] | Structure (SMILES)
9 | < 50 nM | 55 to 85% | 55 to 85% | 30 to 50% | 30 to 50% |  | CC(=O)c1c(C)c2cnc(Nc3ccc(N4CCN(C(C)CC(=O)N5CC6(CC(Nc7nc(NC(C)C)ccc7C(=O)Nc7cn(C)c(C8CC8)n7)C6)C5)CC4)cn3)nc2n(C2CCCC2)c1=O (centres unmarked) [CPD-338, 2-((2-(3-(4-(6-((6-acetyl-8-cyclopentyl-5-methyl-7-oxo-7,8-dihydropyrido[2,3-d]pyrimidin-2-yl)amino)pyridin-3-yl)piperazin-1-yl)butanoyl)-2-azaspiro[3.3]heptan-6-yl)amino)-N-(2-cyclopropyl-1-methyl-1H-imidazol-4-yl)-6-(isopropylamino)nicotinamide]
10 | < 50 nM | 55 to 85% | 55 to 85% | < 30% | < 30% |  | [2H]C([2H])([2H])Nc1ccc(C(=O)Nc2ccc(N(C)C)nn2)c(NC2CC3(C2)CN(C(=O)CN2CCC4(CCN(c5ccc(Nc6ncc7c(C)c(C(C)=O)c(=O)n(C8CCCC8)c7n6)nc5)C4)C2)C3)n1 (centres unmarked) [CPD-384, 2-((2-(2-(7-(6-((6-acetyl-8-cyclopentyl-5-methyl-7-oxo-7,8-dihydropyrido[2,3-d]pyrimidin-2-yl)amino)pyridin-3-yl)-2,7-diazaspiro[4.4]nonan-2-yl)acetyl)-2-azaspiro[3.3]heptan-6-yl)amino)-N-(6-(dimethylamino)pyridazin-3-yl)-6-((methyl-d3)amino)nicotinamide]
11 |  |  |  |  |  | ≥ 50 nM | CC(=O)c1c(C)c2cnc(Nc3ccc(N4CCN(C5CCN(C(=O)NC6CCC(Nc7nc(NC(C)C)ccc7C(=O)Nc7ccc(N(C)C)nn7)CC6)C5)CC4)cn3)nc2n(C2CCCC2)c1=O (centres unmarked) [CPD-483, 2-((4-(3-(4-(6-((6-acetyl-8-cyclopentyl-5-methyl-7-oxo-7,8-dihydropyrido[2,3-d]pyrimidin-2-yl)amino)pyridin-3-yl)piperazin-1-yl)pyrrolidine-1-carboxamido)cyclohexyl)amino)-N-(6-(dimethylamino)pyridazin-3-yl)-6-(isopropylamino)nicotinamide]
12 |  |  |  |  |  | ≤ 10 nM | CC(=O)c1c(C)c2cnc(Nc3ccc(N4CCC5(CCN(CC(=O)NCC67CC(Nc8nc(NC(C)C)ccc8C(=O)Nc8ccc(N(C)C)nn8)(C6)C7)C5)C4)cn3)nc2n(C2CCCC2)c1=O (centres unmarked) [CPD-485, 2-((3-((2-(7-(6-((6-acetyl-8-cyclopentyl-5-methyl-7-oxo-7,8-dihydropyrido[2,3-d]pyrimidin-2-yl)amino)pyridin-3-yl)-2,7-diazaspiro[4.4]nonan-2-yl)acetamido)methyl)bicyclo[1.1.1]pentan-1-yl)amino)-N-(6-(dimethylamino)pyridazin-3-yl)-6-(isopropylamino)nicotinamide]
13 |  |  |  |  |  | ≥ 50 nM | [2H]C([2H])([2H])Nc1ccc(C(=O)Nc2ccc(N(C)C)nn2)c(NC2CC3(C2)CN(C(=O)CN2CC4(C2)CN(c2ccc(Nc5ncc6c(C)c(C(C)=O)c(=O)n(C7CCCC7)c6n5)nc2)C4)C3)n1 [CPD-489, 2-((2-(2-(6-(6-((6-acetyl-8-cyclopentyl-5-methyl-7-oxo-7,8-dihydropyrido[2,3-d]pyrimidin-2-yl)amino)pyridin-3-yl)-2,6-diazaspiro[3.3]heptan-2-yl)acetyl)-2-azaspiro[3.3]heptan-6-yl)amino)-N-(6-(dimethylamino)pyridazin-3-yl)-6-((methyl-d3)amino)nicotinamide]
